Each structure is given as a SMILES string. pIC50: −log10 of the molar value.

One assay deals with T1, IDO1 (Homo sapiens, UniProt P14902). Nature of the assay: IDO1 cellular activity using Hela cells (IFN-gamma induced IDO expression, kynurenine absorbance at 480 nm). The assay is classed as cell-based. The conditions noted are these: IDO induced with interferon gamma 50 ng/ml, 24 h compound incubation, read-out: Inhibitory Activity (IC50). The procedure: Hela cells were seeded at a density of 20000 cells/well in 100 μl of a culture medium (EMEM supplemented with 10% FBS, penicillin 100 U/ml, and streptomycin 100 μg/ml) in a tissue culture-treated 96 well plate. The cells were cultured in a 5% carbon dioxide incubator for 24 hours, treated with recombinant human interferon gamma at the concentration of 50 ng/ml, and then cultured for 48 hours in a 5% carbon dioxide incubator to induce IDO expression.
T1 sequence (P14902 whole entry): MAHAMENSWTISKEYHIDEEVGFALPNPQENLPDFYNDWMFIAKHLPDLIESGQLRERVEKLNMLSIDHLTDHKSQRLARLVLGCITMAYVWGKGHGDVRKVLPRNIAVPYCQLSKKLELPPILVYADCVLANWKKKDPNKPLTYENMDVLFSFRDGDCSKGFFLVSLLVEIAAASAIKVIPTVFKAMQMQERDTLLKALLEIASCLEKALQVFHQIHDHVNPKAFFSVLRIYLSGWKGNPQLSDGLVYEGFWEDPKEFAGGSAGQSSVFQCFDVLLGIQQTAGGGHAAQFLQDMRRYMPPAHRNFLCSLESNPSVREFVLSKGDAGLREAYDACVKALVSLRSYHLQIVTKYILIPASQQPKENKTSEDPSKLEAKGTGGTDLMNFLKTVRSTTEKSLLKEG
The activities were measured using IDO1 cellular activity-measuring substrate (IDO1 cellular activity quickDetect supplements catalog: #62000-2, BPS Bioscience). Specifically, an assay medium was prepared by diluting IDO1 assay medium substrate 1 and IDO1 assay medium supplement 2 in a culture medium at a ratio of 1:100, respectively. The test compounds were diluted to the predetermined concentrations in the fresh assay medium. After removing the culture medium using a multi-pipet, 200 μl of each assay medium containing the test material was added into the respective well, followed by incubating in a 5% carbon dioxide incubator for 24 hours. The next day, 140 μl of culture medium from each well was transferred to a new 96-well plate. 10 μl of 6.1N trichloroacetic acid was added into each well, which was then cultured in a 50° C. incubator for 30 minutes. The plate was centrifuged at 2500 rpm for 10 minutes to settle any sediment. A detection reagent solution was prepared by diluting the detection reagent (component D kit, catalog: #62000-2, BPS Bioscience) 50-fold in acetic acid. 100 μl of the supernatant taken from the centrifuged plate was transferred to a new transparent 96-well plate and then 100 μl of the detection reagent solution was added thereto. After reacting at room temperature for 10 minutes, absorbance was measured at 480 nm wavelength. For analysis of the results, the absorbance (At) of the well containing Hela cells in which IDO protein expression was induced without treatment of an inhibitor was 100%; and the absorbance (Ab) of the well containing Hela cells in which IDO protein expression was not induced was 0. The % absorbance was calculated according to the following equation: % Absorbance=(A−Ab)/(At−Ab), A=absorbance of the well treated with the test compound.
The results obtained by calculating the 50% inhibitory concentration (C50) of each compound, from the absorbance values obtained as described above, are shown in Table 1 below.
As a reminder, the pIC50 is the IC50 on a negative log10 scale, so that one unit is a factor of ten. For `C[C@H](C[C@H]1CC[C@@H](c2ccnc3ccc(F)cc32)CC1)Nc1nc2ccccc2o1` [Example 24, N-((R)-1-((cis)-4-(6-fluoroquinolin-4-yl)cyclohexyl)propan-2-yl)benzo[d]oxazol-2-amine], the pIC50 is 7.77.

`COc1ccc2nc(N[C@H](C)C[C@H]3CC[C@@H](c4ccnc5ccc(F)cc54)CC3)sc2c1` [Example 14, N-((R)-1-((cis)-4-(6-fluoroquinolin-4-yl)cyclohexyl)propan-2-yl)-6-methoxybenzo[d]thiazol-2-amine]: the pIC50 was 9.00.

For `C[C@H](C[C@H]1CC[C@@H](c2ccnc3ccc(F)cc32)CC1)Nc1ncnc2cc(C#N)ccc12` [Example 1, 4-(((R)-1-((cis)-4-(6-fluoroquinolin-4-yl)cyclohexyl)propan-2-yl)amino)quinazolin-7-carbonitrile], the pIC50 was 7.80.

Take `C[C@H](C[C@H]1CC[C@H](c2ccnc3ccc(F)cc32)CC1)Nc1cc(=O)oc2ccc(Br)cc12` [Example 7, 6-bromo-4-(((R)-1-((trans)-4-(6-fluoroquinolin-4-yl)cyclohexyl)propan-2-yl)amino)-2H-chromen-2-one]: the negative-log IC50 (pIC50) is 7.72.

Turning to `C[C@H](C[C@H]1CC[C@@H](c2ccnc3ccc(F)cc32)CC1)Nc1nc2ncccc2s1` [Example 21, N-((R)-1-((cis)-4-(6-fluoroquinolin-4-yl)cyclohexyl)propan-2-yl)thiazolo[4,5-b]pyridin-2-amine], the pIC50 was 7.74.

As to `C[C@H](C[C@H]1CC[C@@H](c2ccnc3ccc(F)cc32)CC1)Nc1ncnc2cc(Cl)ccc12` [Example 3, 7-chloro-N-((R)-1-((cis)-4-(6-fluoroquinolin-4-yl)cyclohexyl)propan-2-yl)quinazolin-4-amine], the pIC50 is 7.85.

In the case of `CC[C@H](C[C@H]1CC[C@@H](c2ccnc3ccc(F)cc32)CC1)Nc1nc2ccc(OC)cc2s1` [Example 15, N-((R)-1-((cis)-4-(6-fluoroquinolin-4-yl)cyclohexyl)butan-2-yl)-6-methoxybenzo[d]thiazol-2-amine], the pIC50 is 8.29.

Regarding `C[C@H](C[C@H]1CC[C@H](c2ccnc3ccc(F)cc32)CC1)Nc1ncnc2cc(Cl)ccc12` [Example 4, 7-chloro-N-((R)-1-((trans)-4-(6-fluoroquinolin-4-yl)cyclohexyl)propan-2-yl)quinazolin-4-amine], the pIC50 is 7.96.

For the compound `C[C@H](C[C@H]1CC[C@@H](c2ccnc3ccc(F)cc32)CC1)Nc1cc(=O)oc2cc(Br)ccc12` [Example 9, 7-bromo-4-(((R)-1-((cis)-4-(6-fluoroquinolin-4-yl)cyclohexyl)propan-2-yl)amino)-2H-chromen-2-one], the pIC50 is 7.74.

On to `C[C@H](C[C@H]1CC[C@H](c2ccnc3ccc(F)cc32)CC1)Nc1cc(=O)oc2cc(Cl)ccc12` [Example 6, 7-chloro-4-(((R)-1-((trans)-4-(6-fluoroquinolin-4-yl)cyclohexyl)propan-2-yl)amino)-2H-chromen-2-one], for which the pIC50 was 7.77.

In another assay the target is T1, IDO1. Description: IDO1 cellular activity using HEK293 cells transfected with IDO1 expression vector. More on the design: host or cells: HEK293 cells, transient transfection with Lipofectamine 2000. It is filed as cell-based. Particulars: 24 h compound incubation, read-out: Inhibitory Activity (IC50). The procedure:
HEK293 cells were seeded at a density of 30000 cells/well in 100 μl of a culture medium (DMEM supplemented with 10% FBS, penicillin 100 U/ml, and streptomycin 100 μg/ml) in a tissue culture-treated 96 well plate. The cells were cultured in a 5% carbon dioxide incubator for 24 hours, transfected with the IDO1 expression vector (component A in IDO1 cell-based assay kit, catalog #72031, BPS Bioscience) using Lipofectamine 2000 (Life Technologies, #11668027), and then cultured for 24 hours in a 5% carbon dioxide incubator to express the IDO protein.
The activities were measured using a IDO1 cell-based assay kit (catalog #72031, BPS Bioscience). Specifically, an assay medium was prepared by diluting IDO1 assay medium substrate 1 and IDO1 assay medium supplement 2 in a culture medium at a ratio of 1:100, respectively. The test compounds were diluted to the predetermined concentrations in the fresh assay medium. After removing the culture medium using a multi-pipet, 200 μl of each assay medium containing the test material was added into respective well, followed by incubating in a 5% carbon dioxide incubator for 24 hours. The next day, 140 μl of culture medium from each well was transferred to a new 96-well plate. 10 μl of 6.1N trichloroacetic acid was added into each well, which was then cultured in a 50° C. incubator for 30 minutes. The plate was centrifuged at 2500 rpm for 10 minutes to settle any sediment. A detection reagent solution was prepared by diluting the detection reagent (component D in IDO1 cell-based assay kit, catalog #72031 BPS Bioscience) 50-fold in acetic acid. 100 μl of the supernatant taken from the centrifuged plate was transferred to a new transparent 96-well plate and then 100 μl of the detection reagent solution was added thereto. After reacting at room temperature for 10 minutes, absorbance was measured at 480 nm wavelength. For analysis of the results, the absorbance (At) of the well containing HEK293 cells in which IDO protein was expressed without treatment of an inhibitor was 100%; and the absorbance (Ab) of the well containing HEK293 cells in which IDO protein was not expressed was 0. The % absorbance was calculated according to the following equation: % Absorbance=(A−Ab)/(At−Ab), A=absorbance of the well treated with the test compound.
For the compound `C[C@H](C[C@H]1CC[C@H](c2ccnc3ccc(F)cc32)CC1)Nc1nc(Cl)nc2ccc(Cl)cc12` [Example 49, 2,6-dichloro-N-((R)-1-((trans)-4-(6-fluoroquinolin-4-yl)cyclohexyl)propan-2-yl)quinazolin-4-amine], the pIC50 is 7.14.

Regarding `C[C@H](C[C@H]1CC[C@@H](c2ccnc3ccc(F)cc32)CC1)Nc1nc(Cl)nc2cc(Br)ccc12` [Example 64, 7-bromo-2-chloro-N-((R)-1-((cis)-4-(6-fluoroquinolin-4-yl)cyclohexyl)propan-2-yl)quinazolin-4-amine], the negative logarithm of the IC50 (pIC50) was 7.41.

In the case of `C[C@H](C[C@H]1CC[C@H](c2ccnc3ccc(F)cc32)CC1)Nc1nc(Cl)nc2c(Cl)cccc12` [Example 51, 2,8-dichloro-N-((R)-1-((trans)-4-(6-fluoroquinolin-4-yl)cyclohexyl)propan-2-yl)quinazolin-4-amine], the pIC50 is 6.91.

As for `C[C@H](C[C@H]1CC[C@@H](c2ccnc3ccc(F)cc32)CC1)Nc1nc2c(Cl)cccc2s1` [Example 35, 4-chloro-N-((R)-1-((cis)-4-(6-fluoroquinolin-4-yl)cyclohexyl)propan-2-yl)benzo[d]thiazol-2-amine], the pIC50 was 6.98.

Consider `C[C@H](C[C@H]1CC[C@@H](c2ccnc3ccc(F)cc32)CC1)Nc1nc2ccc(OCCF)cc2o1` [Example 45, 6-(2-fluoroethoxy)-N-((R)-1-((cis)-4-(6-fluoroquinolin-4-yl)cyclohexyl)propan-2-yl)benzo[d]oxazol-2-amine], for which the pIC50 is 8.26.

Consider `COc1ccc2c(N[C@H](C)C[C@H]3CC[C@@H](c4ccnc5ccc(F)cc54)CC3)nc(Cl)nc2c1` [Example 67, 2-chloro-N-((R)-1-((cis)-4-(6-fluoroquinolin-4-yl)cyclohexyl)propan-2-yl)-7-methoxyquinazolin-4-amine], for which the negative logarithm of the IC50 (pIC50) is 7.32.

As to `C[C@H](C[C@H]1CC[C@@H](c2ccnc3ccc(F)cc32)CC1)Nc1nccc2cc(F)ccc12` [Example 33, 6-fluoro-N-((R)-1-((cis)-4-(6-fluoroquinolin-4-yl)cyclohexyl)propan-2-yl)isoquinolin-1-amine], the negative logarithm of the IC50 (pIC50) is 6.93.

In the case of `C[C@H](C[C@H]1CC[C@H](c2ccnc3ccc(F)cc32)CC1)Nc1nc(Cl)nc2c(OC(F)(F)F)cccc12` [Example 53, 2-chloro-N-((R)-1-((trans)-4-(6-fluoroquinolin-4-yl)cyclohexyl)propan-2-yl)-8-(trifluoromethoxy)quinazolin-4-amine], the pIC50 is 7.24.

In the case of `C[C@H](C[C@H]1CC[C@@H](c2ccnc3ccc(F)cc32)CC1)Nc1nc(Cl)nc2cc(C#N)ccc12` [Example 63, 2-chloro-4-(((R)-1-((cis)-4-(6-fluoroquinolin-4-yl)cyclohexyl)propan-2-yl)amino)quinazolin-7-carbonitrile], the pIC50 is 7.56.

Consider `C[C@H](C[C@H]1CC[C@H](c2ccnc3ccc(F)cc32)CC1)Nc1nc(Cl)nc2cc(C#N)ccc12` [Example 55, 2-chloro-4-(((R)-1-((trans)-4-(6-fluoroquinolin-4-yl)cyclohexyl)propan-2-yl)amino)quinazolin-7-carbonitrile], for which the pIC50 was 7.55.

For `CCOc1ccc2nc(N[C@H](C)C[C@H]3CC[C@@H](c4ccnc5ccc(F)cc54)CC3)oc2c1` [Example 44, 6-ethoxy-N-((R)-1-((cis)-4-(6-fluoroquinolin-4-yl)cyclohexyl)propan-2-yl)benzo[d]oxazol-2-amine], the pIC50 is 8.36.

In the case of `C[C@H](C[C@H]1CC[C@@H](c2ccnc3ccc(F)cc32)CC1)Nc1nc(Cl)nc2c(F)cccc12` [Example 69, 2-chloro-8-fluoro-N-((R)-1-((cis)-4-(6-fluoroquinolin-4-yl)cyclohexyl)propan-2-yl)quinazolin-4-amine], the pIC50 is 7.73.

The values above are taken from patent publication US20240174636A1, “NOVEL INDOLEAMINE 2,3-DIOXYGENASE INHIBITORS, PROCESSES FOR THE PREPARATION THEREOF AND PHARMACEUTICAL COMPOSITIONS COMPRISING THE SAME” (YUHAN CORPORATION, priority 2021, published 2024).
